Reference: US11384078B2, “5,6-fused-bicyclic compounds and compositions for the treatment of parasitic diseases” (NOVARTIS AG, priority 2017, dated 2022)
pEC50: −log10 of the molar value.

What was measured:
Format in all cases: cell-based
[1] = tested on: Leishmania donovani axenic amastigote; assay: In vitro assay for growth inhibition of Leishmania donovani axenic amastigote (Cell TiterGlo luminescence); conditions: Leishmania donovani, L. donovani axenic amastigotes in vitro; read-out: L. donovani amastigotes EC50
Outline: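 Compound-treated wells received 9600 axenic amastigotes in RPMI 1640-based medium at pH 5.5 (37 °C, 5% CO2). Growth measured as ATP luminescence (CellTiter-Glo) after 2-day incubation; DMSO and reference compounds served as controls.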

[2] = tested on: L. donovani HU3 strain in mouse peritoneal macrophages; assay: Assay for inhibition of parasitemia of Leishmania donovani in mouse macrophages (SYBR Green nuclei count, high-content imaging); conditions: Leishmania donovani, Peritoneal macrophage, L. donovani in mouse peritoneal macrophages; read-out: L. donovani in Mouse Macrophages EC50
Outline: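 Parasite numbers were counted from SYBR Green-stained nuclei imaged by high-content microscopy after paraformaldehyde fixation and Triton permeabilization. Before this, compound was applied for 5 days at 37° C to BALB/c peritoneal macrophages (2×10^4/well) that had been exposed 24 h to 4×10^5 L. donovani HU3 amastigotes harvested from infected mouse spleens.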

[3] = tested on: Trypanosoma cruzi amastigotes cultured in 3T3 fibroblast cells; assay: Assay for growth inhibition of kinetoplastid parasite Trypanosoma cruzi (beta-galactosidase Tulahuen strain, CPRG readout); conditions: Trypanosoma cruzi, Fibroblast, T. cruzi amastigotes in 3T3 fibroblast cells; read-out: Buckner infectious T. cruzi EC50
Outline: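 3T3 fibroblasts (1,000 cells/well) plated overnight, treated with compound in DMSO, then infected with 10,000 Lac-Z-expressing Tulahuen trypomastigotes. After 6 days, 0.6 mM CPRG with 0.6% NP-40 added for 2 h at room temperature; absorbance gives relative intracellular amastigote numbers. Benznidazole and nifurtimox serve as positive controls.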

[4] = tested on: Trypanosoma brucei brucei (Lister 427) strain; assay: Assay for growth inhibition against Trypanosoma brucei brucei (Cell TiterGlo ATP luminescence); conditions: Trypanosoma brucei, T. brucei brucei (Lister 427); read-out: T. Brucei (HAT) EC50
Outline: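 Growth read-out is cellular ATP by CellTiter-Glo luminescence, measured 30 min after reagent addition, following 2-day incubation at 37 °C in CO2. Parasites (10,000/mL, HMI-9 plus 10% FBS and 10% serum plus) faced 10 threefold dilutions in duplicate; IC50 taken as 50% growth inhibition versus untreated.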

| Compound | pEC50 [1] | pEC50 [2] | pEC50 [3] | pEC50 [4] |
| --- | --- | --- | --- | --- |
| O=C(Nc1ccc(F)c(-n2cc3cc(-c4ccc(F)cn4)cnc3n2)c1)N1CC(F)C1 [Compound 329, 3-fluoro-N-{4-fluoro-3-[5-(5-fluoropyridin-2-yl)-2H-pyrazolo[3,4-b]pyridin-2-yl]phenyl}azetidine-1-carboxamide] | 9.00 | 8.70 | 9.00 | 8.70 |
| O=C(Nc1ccc(F)c(-n2cc3cc(-c4ccc(F)cn4)cnc3n2)c1)N1CCC1 [Compound 330, N-{4-fluoro-3-[5-(5-fluoropyridin-2-yl)-2H-pyrazolo[3,4-b]pyridin-2-yl]phenyl}azetidine-1-carboxamide] | 9.00 | 8.70 | 9.00 | 9.00 |
| CN(C)c1cnc2nn(-c3cc(NC(=O)C4CC4)ccc3F)cc2c1 [Compound 331, N-{3-[5-(dimethylamino)-2H-pyrazolo[3,4-b]pyridin-2-yl]-4-fluorophenyl}cyclopropanecarboxamide] | 6.66 | 6.04 | 6.86 | 6.69 |
| O=C(Nc1ccc(F)c(-n2cc3cc(-c4ncccc4F)cnc3n2)c1)C1CC1 [Compound 332, N-{4-fluoro-3-[5-(3-fluoropyridin-2-yl)-2H-pyrazolo[3,4-b]pyridin-2-yl]phenyl}cyclopropanecarboxamide] | 7.55 | 7.12 | 7.82 | 7.42 |
| Cc1cccnc1-c1cnc2nn(-c3cc(NC(=O)c4oc(CO)nc4C)ccc3F)cc2c1 [Compound 334, N-(4-fluoro-3-(5-(3-methylpyridin-2-yl)-2H-pyrazolo[3,4-b]pyridin-2-yl)phenyl)-2-(hydroxymethyl)-4-methyloxazole-5-carboxamide] | 6.63 | 5.73 | 5.84 | 6.57 |
| Cc1nc(C)c(C(=O)Nc2ccc(F)c(-n3cc4cc(-c5ncccc5CO)cnc4n3)c2)o1 [Compound 335] | 7.89 | 6.95 | 6.33 | 7.44 |
| O=C(Nc1ccc(F)c(-n2cc3cc(-c4ccccn4)cnc3n2)c1)N1CCCC1 [Compound 336, N-{4-fluoro-3-[5-(pyridin-2-yl)-2H-pyrazolo[3,4-b]pyridin-2-yl]phenyl}pyrrolidine-1-carboxamide] | 8.70 | 8.40 | 9.00 | 9.00 |
| O=C(Nc1ccc(F)c(-n2cc3cc(N4CC(F)(F)C4)cnc3n2)c1)N1CCCC1 [Compound 338, N-{3-[5-(3,3-difluoroazetidin-1-yl)-2H-pyrazolo[3,4-b]pyridin-2-yl]-4-fluorophenyl}pyrrolidine-1-carboxamide] | 8.30 | 8.70 | 8.52 | 8.52 |
| O=C(Nc1ccnc(-n2cc3cc(Br)cnc3n2)c1)N1CC[C@@H](F)C1 [Compound 340, (3R)-N-(2-{5-bromo-2H-pyrazolo[3,4-b]pyridin-2-yl}pyridin-4-yl)-3-fluoropyrrolidine-1-carboxamide] | 6.65 | 7.06 | 7.21 | 7.46 |
| O=C(Nc1ccnc(-n2cc3cc(-c4ccccn4)cnc3n2)c1)N1CCC1 [Compound 341, N-{2-[5-(pyridin-2-yl)-2H-pyrazolo[3,4-b]pyridin-2-yl]pyridin-4-yl}azetidine-1-carboxamide] | 8.22 | 7.48 | 8.00 | 8.05 |
| O=C(Nc1ccnc(-n2cc3cc(-c4ccccn4)cnc3n2)c1)N1CC(F)C1 [Compound 342, 3-fluoro-N-{2-[5-(pyridin-2-yl)-2H-pyrazolo[3,4-b]pyridin-2-yl]pyridin-4-yl}azetidine-1-carboxamide] | 8.15 | 7.62 | 7.77 | 8.00 |
| O=C(Nc1cccc(-n2cc3cc(N4CC(F)(F)C4)cnc3n2)c1)N1CCC1 [Compound 343, N-{3-[5-(3,3-difluoroazetidin-1-yl)-2H-pyrazolo[3,4-b]pyridin-2-yl]phenyl}azetidine-1-carboxamide] | 8.00 | 7.49 | 7.85 | 8.05 |
| O=C(Nc1cccc(-n2cc3cc(-c4ccccn4)cnc3n2)c1)N1CCC1 [Compound 344, N-{3-[5-(pyridin-2-yl)-2H-pyrazolo[3,4-b]pyridin-2-yl]phenyl}azetidine-1-carboxamide] | 8.70 | 8.30 | 8.52 | 9.00 |
| O=C(Nc1ccc(F)c(-n2cc3cc(-c4ccccn4)cnc3n2)c1)c1cnccn1 [Compound 345, N-{4-fluoro-3-[5-(pyridin-2-yl)-2H-pyrazolo[3,4-b]pyridin-2-yl]phenyl}pyrazine-2-carboxamide] | 7.96 | 7.48 | 8.40 | 8.30 |
| O=C(Nc1ccc(F)c(-n2cc3cc(-c4ccccn4)cnc3n2)c1)C1CC12CC2 (stereo not shown) [Compound 346, N-{4-fluoro-3-[5-(pyridin-2-yl)-2H-pyrazolo[3,4-b]pyridin-2-yl]phenyl}spiro[2.2]pentane-1-carboxamide] | 6.62 | 6.81 | 7.47 | 7.39 |
| CC1(C)C=C(C(=O)Nc2ccc(F)c(-n3cc4cc(-c5ccccn5)cnc4n3)c2)C1 [Compound 347, N-{4-fluoro-3-[5-(pyridin-2-yl)-2H-pyrazolo[3,4-b]pyridin-2-yl]phenyl}-3,3-dimethylcyclobut-1-ene-1-carboxamide] | 8.15 | 7.82 | 8.70 | 8.15 |
| N#CC1(C(=O)Nc2ccc(F)c(-n3cc4cc(-c5ccccn5)cnc4n3)c2)CC1 [Compound 348, 1-cyano-N-{4-fluoro-3-[5-(pyridin-2-yl)-2H-pyrazolo[3,4-b]pyridin-2-yl]phenyl}cyclopropane-1-carboxamide] | 6.46 | 6.02 | 6.85 | 6.95 |
| Cc1cccnc1-c1cnc2nn(-c3cc(NC(=O)C4=CC(C)(C)C4)ccc3F)cc2c1 [Compound 350, N-{4-fluoro-3-[5-(3-methylpyridin-2-yl)-2H-pyrazolo[3,4-b]pyridin-2-yl]phenyl}-3,3-dimethylcyclobut-1-ene-1-carboxamide] | 7.80 | 7.24 | 7.80 | 7.55 |
| Cc1nc(C)c(C(=O)Nc2ccc(F)c(-n3cc4cc(C(C)C)cnc4n3)c2)o1 [Compound 351, N-(4-fluoro-3-(5-isopropyl-2H-pyrazolo[3,4-b]pyridin-2-yl)phenyl)-2,4-dimethyloxazole-5-carboxamide] | 7.31 | 7.62 | 7.82 | 7.51 |
